From the supplement of paper PMC10307832

Compound: C1CCC(CC1)N(CCNCCC2=C3C(=C(C=C2)O)NC(=O)CO3)C(=O)CCNCCC4=CC(=C(C=C4)Cl)Cl [AZ505] + N=C(N)NC(=N)NCCc1ccccc1 [Phenformin] (partner 250 µM)
Assay: relative viability (nuclei count vs DMSO), 5 days (fraction); higher = more cells survive
Conditions: first compound 0.08 µM
Method in brief: (§1)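 Lung cancer cell lines were pin-tool dosed in 1536-well plates on the day after seeding, with either a lone drug or a fixed anchor-drug dose plus five library-drug doses (not always all listed) in √10 steps. Nuclei were counted on 4× images after 5 days. Relative viability is the ratio of treated-well to vehicle-well nuclei counts, with each value a median of duplicate plates.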

Cell Line	relative viability
HOP-62	0.63
HCC-44	0.144
NCI-H522	0.526
BEN	0.24
HARA	0.389
SW 900	0.618
HCC-78	0.531
NCI-H322M	0.75
LCLC-97TM1	0.386
NCI-H2009	0.387
A-427	0.309
NCI-H441	0.742
NCI-H661	0.285
NCI-H1734	0.393
NCI-H460	0.448
NCI-H2347	0.271
SW 1573	0.36
NCI-H1395	0.435
201T	0.446
NCI-H1915	0.339
HCC-827	0.401
LXF-289	0.488
NCI-H23	0.731
NCI-H647	0.574
CAL-12T	0.473
NCI-H1651	0.385

Same assay, conditions: first compound 0.253 µM

Cell Line	relative viability
HOP-62	0.797
NCI-H522	0.521
LU99A	0.741
BEN	0.239
HARA	0.422
SW 900	0.522
HCC-78	0.611
NCI-H322M	0.756
LCLC-97TM1	0.445
NCI-H2009	0.486
A-427	0.255
NCI-H441	0.814
NCI-H661	0.261
NCI-H1734	0.351
NCI-H460	0.534
SW 1573	0.402
NCI-H1395	0.461
201T	0.445
NCI-H1915	0.38
HCC-827	0.427
LXF-289	0.491
NCI-H647	0.314
CAL-12T	0.531
NCI-H1651	0.346

Same assay, conditions: first compound 0.8 µM

Cell Line	relative viability
HOP-62	0.67
HCC-44	0.294
NCI-H522	0.61
LU99A	0.987
BEN	0.293
HARA	0.42
SW 900	0.588
HCC-78	0.707
NCI-H322M	0.718
LCLC-97TM1	0.416
NCI-H2009	0.468
A-427	0.327
NCI-H441	0.905
NCI-H661	0.288
NCI-H1734	0.402
NCI-H460	0.48
SW 1573	0.333
NCI-H1395	0.426
201T	0.501
NCI-H1915	0.345
HCC-827	0.453
LXF-289	0.512
NCI-H23	0.741
NCI-H647	0.479
CAL-12T	0.553
NCI-H1651	0.318

Same assay, conditions: first compound 2.53 µM

Cell Line	relative viability
HOP-62	0.725
HCC-44	0.247
NCI-H522	0.732
LU99A	0.715
BEN	0.262
HARA	0.343
SW 900	0.695
HCC-78	0.731
NCI-H322M	0.728
LCLC-97TM1	0.428
NCI-H2009	0.506
A-427	0.395
NCI-H441	0.907
NCI-H661	0.328
NCI-H1734	0.406
NCI-H460	0.482
SW 1573	0.341
NCI-H1395	0.483
201T	0.468
NCI-H1915	0.375
HCC-827	0.44
LXF-289	0.509
NCI-H23	0.759
NCI-H647	0.488
CAL-12T	0.525
NCI-H1651	0.357

Same assay, conditions: first compound 8 µM

Cell Line	relative viability
HOP-62	0.784
HCC-44	0.207
NCI-H522	0.626
LU99A	0.853
BEN	0.286
HARA	0.408
SW 900	0.647
HCC-78	0.728
NCI-H322M	0.826
LCLC-97TM1	0.462
NCI-H2009	0.442
A-427	0.298
NCI-H441	0.786
NCI-H661	0.296
NCI-H1734	0.425
NCI-H460	0.551
NCI-H2347	0.331
SW 1573	0.373
NCI-H1395	0.479
201T	0.477
NCI-H1915	0.354
HCC-827	0.425
LXF-289	0.514
NCI-H23	0.821
NCI-H647	0.702
CAL-12T	0.649
NCI-H1651	0.345

Compound: Cn1c(=O)n(-c2ccc(C(C)(C)C#N)cc2)c2c3cc(-c4cnc5ccccc5c4)ccc3ncc21 [Dactolisib] + N=C(N)NC(=N)NCCc1ccccc1 [Phenformin] (partner 250 µM)
Assay: as above
Conditions: first compound 0.002 µM
Method in brief: as §1

Cell Line	relative viability
HOP-62	0.736
HCC-44	0.274
NCI-H522	0.591
LU99A	0.871
BEN	0.231
HARA	0.467
SW 900	0.67
HCC-78	0.912
NCI-H322M	0.822
LCLC-97TM1	0.452
NCI-H2009	0.553
A-427	0.366
NCI-H441	1.28
NCI-H661	0.254
NCI-H1734	0.428
NCI-H460	0.506
NCI-H2347	0.731
SW 1573	0.382
NCI-H1395	0.445
201T	0.476
NCI-H1915	0.376
HCC-827	0.394
LXF-289	0.571
NCI-H23	0.807
NCI-H647	0.536
CAL-12T	0.672
NCI-H1651	0.333

Same assay, conditions: first compound 0.006325 µM

Cell Line	relative viability
HOP-62	0.654
HCC-44	0.203
NCI-H522	0.647
LU99A	0.761
BEN	0.263
HARA	0.441
SW 900	0.536
HCC-78	0.771
NCI-H322M	0.745
LCLC-97TM1	0.444
NCI-H2009	0.467
A-427	0.335
NCI-H441	0.737
NCI-H661	0.278
NCI-H1734	0.333
NCI-H460	0.474
NCI-H2347	0.409
SW 1573	0.238
NCI-H1395	0.485
201T	0.483
NCI-H1915	0.387
HCC-827	0.392
LXF-289	0.499
NCI-H23	0.795
NCI-H647	0.449
CAL-12T	0.567
NCI-H1651	0.279

Same assay, conditions: first compound 0.02 µM

Cell Line	relative viability
HOP-62	0.655
HCC-44	0.171
NCI-H522	0.548
LU99A	0.682
BEN	0.245
HARA	0.51
SW 900	0.591
HCC-78	0.63
NCI-H322M	0.713
LCLC-97TM1	0.42
NCI-H2009	0.474
A-427	0.348
NCI-H441	0.812
NCI-H661	0.292
NCI-H1734	0.353
NCI-H460	0.508
NCI-H2347	0.381
SW 1573	0.31
NCI-H1395	0.453
201T	0.446
NCI-H1915	0.391
HCC-827	0.396
LXF-289	0.534
NCI-H23	0.736
NCI-H647	0.429
CAL-12T	0.508
NCI-H1651	0.305

Same assay, conditions: first compound 0.06325 µM

Cell Line	relative viability
HOP-62	0.405
NCI-H522	0.535
LU99A	0.443
BEN	0.248
HARA	0.405
SW 900	0.288
HCC-78	0.495
NCI-H322M	0.617
LCLC-97TM1	0.317
NCI-H2009	0.308
A-427	0.263
NCI-H441	0.337
NCI-H661	0.216
NCI-H1734	0.238
NCI-H460	0.142
NCI-H2347	0.329
SW 1573	0.139
NCI-H1395	0.377
201T	0.414
NCI-H1915	0.344
HCC-827	0.382
LXF-289	0.518
NCI-H23	0.359
NCI-H647	0.156
CAL-12T	0.236
NCI-H1651	0.243

Same assay, conditions: first compound 0.2 µM

Cell Line	relative viability
HOP-62	0.356
HCC-44	0.166
NCI-H522	0.631
LU99A	0.258
BEN	0.237
HARA	0.211
SW 900	0.198
HCC-78	0.319
NCI-H322M	0.485
LCLC-97TM1	0.179
NCI-H2009	0.198
A-427	0.244
NCI-H441	0.289
NCI-H661	0.265
NCI-H1734	0.203
NCI-H460	0.0635
NCI-H2347	0.264
SW 1573	0.175
NCI-H1395	0.373
201T	0.428
NCI-H1915	0.327
HCC-827	0.393
LXF-289	0.439
NCI-H23	0.316
NCI-H647	0.105
CAL-12T	0.192
